Where two headings read alike, the source gives them in different places.
What was measured:
[1] = tested on: covalent topoisomerase II-DNA complexes; assay: K-SDS precipitation assay for protein-DNA complexes in KB ATCC cells (cellular protein-DNA complex formation); type: cell-based; settings: compared with etoposide
Protocol: (§1) The compounds of the present invention were tested for their degree of inhibitory activity on human type II DNA topoisomerase, their effect on the formation of protein-linked DNA breakage, and their cytotoxicity. The inhibitory activity for compounds of the present invention correlated with the ability of the compounds to cause DNA strand breakage. […] For a description of the assays used with respect to the compounds listed in Tables 1 to 5 see Thurston, L.S., Irie, H., Tani, S., Han, F. S., Liu, Z. C., Cheng, Y.C., and Lee, K. H., Antitumor Agents 78. Inhibition of Human DNA Topoisomerase II by Podophyllotoxin and Peltatin Analogues, J. Med. Chem. 29, 1547 (1986), and the references cited therein, herein incorporated by reference.
(§2) Drugs were dissolved in Me2 SO at a concentration of 20 mM as the stock solution and diluted before use with water to the desired concentration of each drug.
The intracellular formation of covalent topoisomerase II-DNA complexes was quantitated using the potassium SDS precipitation assay, a procedure adapted from the method described in Rowe, T. C., Chen, G. L., Hsiang, Y. H., and Liu, L., Cancer Res., 46, 2021 (1986) (hereinafter Rowe et al.), which is herein specifically incorporated by reference. KB ATCC cells were prelabeled with 0.05 mCi/ml ^14 C-thymidine (specific activity 50.5 mCi/mmol) for 18 hr. A final concentration of 5×10^5 cells/sample were treated with 10 μM of the drugs at 37° C. for 1 hr and proceeded according to the procedure described by Rowe et al. to detect the protein linked DNA levels.

KB cells = assay: Cytotoxicity: 50% reduction in cell number of KB cells after three day incubation; type: cell-based; settings: Homo sapiens, 72 h, KB cells, three day incubation, read-out: Cytotoxicity ID50 KB
Protocol: as §1
in cell number after three day incubation.

[2] = target: Human DNA topoisomerase II; assay: DNA topoisomerase II assay (P4 unknotting reaction); type: biochemical; settings: for IC50: read-out: Inhibition of DNA Topoisomerase II Activity ID50; for inhibition of DNA topoisomerase activity relative to etoposide: compared with etoposide
Protocol: as §1, with “cytotoxicity.” for “cytotoxicity. The inhibitory activity for compounds of the present invention correlated with the ability of the compounds to cause DNA strand breakage.”
Human DNA topoisomerase II was isolated from peripheral blast cells of a patient with acute leukemia. The isolation procedure is described in Thurston, L., Imakura, Y., Haruna, M., Li, Z. C., Liu, S. Y., and Lee, K. H., J. Med. Chem., 31, […] (1988) and is a partial combination of the procedure described in Goto, T., Laiapia, P. and Wang, J., J. Biol. Chem., 259, 10422 (1984) and Halligan, B., Edwards, K., and Liu, L., J. Biol. Chem., 260, 2475 (1985) which are herein specifically incorporated by reference.
as §2
The P4 unknotting reaction was a modification of the procedure described by Hseih, T., J. Biol. Chem., 258, 8413 (1985), which is herein specifically incorporated by reference.
The reaction mixture (20 μL), which contained 50 mM HEPES, pH 7.0, 50 mM KCI, 100 mM NaCl, 0.1 mM EDTA, 10 mM MgCl2, 1.0 mM ATP, 50 μg/mL bovine serum albumin, 0.4 μg P4knotted DNA, and enzyme, was incubated with or without drugs.
The reaction mixture was incubated at 37° C. for 30 min and terminated by adding 5.0 μl of a stop solution (2% sodium dodecyl sulfate, 20% glycerol, 0.05% bromophenol blue). These samples were loaded onto a 1% agarose gel and electrophoresed at 55 V overnight with an electrophoresis buffer that contained 90 mM Tris-boric acid, pH 8.3, and 2.5 mM EDTA. At completion, the gel was stained in 0.5 μg/mL of ethidium bromide. Then a photograph was taken of the DNA bands visualized with fluorescence induced by a long-wavelength UV lamp. […]

[3] = tested on: Human DNA topoisomerase II; settings: at higher concentrations; Thurston et al. 1986; cited from earlier work
[4] = clinical level; background; cited from earlier work
[5] = clinical level; background; cited from earlier work; remark: listed apart in the source
[6] = tested on: several human neoplasms, including small cell carcinomas of the lung, testicular carcinomas, Hodgkin's disease, leukemia, lymphoma and Kaposi's Sarcoma; settings: background; cited from earlier work
[7] = Table 1, based on degree of inhibition at 25, 50, and 100 μM
[8] = Table 2, based on degree of inhibition at 10, 25, 50 and 100 μM

## COc1cc(C2c3cc4c(cc3C(NCc3ccc(C#N)cc3)C3COC(=O)C23)OCO4)cc(OC)c1O (stereo not drawn) [Example 11, 4'-O-Demethyl-4β-(4"-cyanobenzylamino)-4-desoxypodophyllotoxin]
[1]
  inhibition of cellular protein-DNA complex formation relative to etoposide: over twice
KB cells; Table 1
  IC50: < 0.4 µM
[2]; [7]
  IC50: 25 µM
[2]
  inhibition of DNA topoisomerase activity relative to etoposide: over twice

## COc1cc(C2c3cc4c(cc3C(NCc3cccc(C#N)c3)C3COC(=O)C23)OCO4)cc(OC)c1O (stereo not drawn) [Example 10, 4'-O-Demethyl-4β-(3"-cyanobenzylamino)-4-desoxypodophyllotoxin]
[1]
  inhibition of cellular protein-DNA complex formation relative to etoposide: over twice
KB cells; Table 1
  IC50: < 0.4 µM
[2]; [7]
  IC50: 25 µM
[2]
  inhibition of DNA topoisomerase activity relative to etoposide: over twice

## COc1cc(C2c3cc4c(cc3C(NCc3ccc(F)cc3)C3COC(=O)C23)OCO4)cc(OC)c1O (stereo not drawn) [Example 9, 4'-O-Demethyl-4β-(4"-fluorobenzylamino)-4-desoxypodophyllotoxin]
KB cells; Table 1
  IC50: > 4 µM
[2]; [7]
  IC50: 50 µM

## CCOC1c2cc3c(cc2C(c2cc(OC)c(O)c(OC)c2)C2C(=O)OCC12)OCO3 (centres unmarked) [4'-demethyl-epipodophyllotoxin ethyl ether]
[3]
  inhibitory activity of DNA topoisomerase II: preserves the inhibitory activity of DNA topoisomerase II intact at higher concentrations

## COc1cc(C2c3cc4c(cc3C(Nc3ccc(F)cc3)C3COC(=O)C23)OCO4)cc(O)c1O (stereo not drawn) [Example 18, 3',4'-O-didemethyl-4β-(4"-floroanilino)-4-desoxypodophyllotoxin]
KB cells; Table 2
  IC50: 3 µM
[2]; [8]
  IC50: 10 µM

## COC(=O)c1cccc(N[C@@H]2c3cc4c(cc3[C@@H](c3cc(O)c(O)c(OC)c3)[C@H]3C(=O)OC[C@@H]32)OCO4)c1 [Example 21, 3'.4'-O-Didemethyl-4β-(3"-methoxycarbonylanilino)-4-desoxypodophyllotoxin]
KB cells; Table 2
  IC50: 1.9 µM
[2]; [8]
  IC50: 1 µM

## COc1cc(C2c3cc4c(cc3C(NCc3cccc(F)c3)C3COC(=O)C23)OCO4)cc(OC)c1O (stereo not drawn) [Example 8, 4-O-Dimethyl-4β-(3"-fluorobenzylamino)-4-desoxypodophyllotoxin]
[1]
  inhibition of cellular protein-DNA complex formation relative to etoposide: over twice
KB cells; Table 1
  IC50: 3 µM
[2]; [7]
  IC50: 25 µM
[2]
  inhibition of DNA topoisomerase activity relative to etoposide: over twice

## COc1cc(C2c3cc4c(cc3C(NCc3cccc([N+](=O)[O-])c3)C3COC(=O)C23)OCO4)cc(OC)c1O (stereo not drawn) [Example 5, 4'-O-Demethyl-4β-(3"-nitrobenzylamino)-4-desoxypodophyllotoxin]
KB cells; Table 1
  IC50: < 0.4 µM
[2]; [7]
  IC50: 25 µM

## COc1cc(CNC2c3cc4c(cc3C(c3cc(OC)c(O)c(OC)c3)C3C(=O)OCC23)OCO4)cc(OC)c1 (stereo not drawn) [Example 12, 4'-O-Demethyl-4β-(3",5"-dimethoxybenzylamino)-4-desoxypodophyllotoxin]
KB cells; Table 1
  IC50: 1.7 µM
[2]; [7]
  IC50: 100 µM

## COc1cc(C2c3cc4c(cc3C(NCc3ccccc3N)C3COC(=O)C23)OCO4)cc(OC)c1O (centres unmarked) [Example 14]
KB cells; Table 1
  IC50: < 0.4 µM
[2]; [7]
  IC50: 25 µM

## COc1cc([C@@H]2c3cc4c(cc3[C@@H](O[C@@H]3O[C@@H]5CO[C@@H](C)O[C@H]5[C@H](O)[C@H]3O)[C@H]3COC(=O)[C@H]23)OCO4)cc(OC)c1O [etoposide]
[4]
  myelosuppression: myelosuppression
KB cells; Table 1
  IC50: 0.2 µM
[5]
  oral bioavailability: poor oral bioavailability
[6]
  therapeutic activity in several human neoplasms: exhibits therapeutic activity in several human neoplasms

## COc1cc([C@@H]2c3cc4c(cc3[C@@H](NC(=O)c3ccc(C#N)cc3)[C@H]3COC(=O)[C@H]23)OCO4)cc(OC)c1O [Example 40, 4'-O-Demethyl-4β-[(4"-cyanobenzoyl)amino]-4-desoxypodophyllotoxin]
KB cells; Table 4
  IC50: 0.1 µM
[2]; Table 4, based on degree of inhibition at 10, 25, 50 and 100 μM
  IC50: 25 µM

## COc1cc(C2c3cc4c(cc3C(Nc3ccc([N+](=O)[O-])cc3)C3COC(=O)C23)OCO4)cc(O)c1O (stereo not drawn) [Example 23, 3',4'-O-Didemethyl-4β-(4"-nitroanilino)-4-desoxypodophyllotoxin]
[1]
  inhibition of cellular protein-DNA complex formation relative to etoposide: over twice
KB cells; Table 2
  IC50: 1.3 µM
[2]; [8]
  IC50: 10 µM
[2]
  inhibition of DNA topoisomerase activity relative to etoposide: over twice

## CCOC(=O)c1ccc(N[C@@H]2c3cc4c(cc3[C@@H](C3=CC(=O)C(=O)C(OC)=C3)[C@H]3C(=O)OC[C@@H]32)OCO4)cc1 [Example 45, 3',4'-Didemethoxy-3',4'-dioxo-4β-[(4"-ethoxycarbonyl)anilino]-4-desoxypodophyllotoxin]
KB cells; Table 5
  IC50: 1.1 µM
[2]; Table 5, based on degree of inhibition at 10, 25, 50 and 100 μM
  IC50: 25 µM

## COc1cc(C2c3cc4c(cc3C(NCc3ccc([N+](=O)[O-])cc3)C3COC(=O)C23)OCO4)cc(OC)c1O (stereo not drawn) [Example 4, 4'-O-Demethyl-4β-(4"-nitrobenzylamino)-4-desoxypodophyllotoxin]
KB cells; Table 1
  IC50: 0.4 µM
[2]; [7]
  IC50: 50 µM

## COc1cc([C@@H]2c3cc(O)c(O)cc3[C@@H](Nc3ccc(C#N)cc3)[C@H]3COC(=O)[C@H]23)cc(OC)c1O [Example 29, 6,7-O-Demethylene-4'-O-demethyl-4β-(cyanoanilino)-4-deoxypodophyllotoxin]
KB cells; Table 3
  IC50: 1 µM
[2]; Table 3, based on degree of inhibition at 20, 25, 50 and 100 μM
  IC50: 20 µM

Source: patent US5332811A, “Etopside analogs” (priority 1991, dated 1994)
